Experimental data reported in patent EP1057484A1, “CELL DEATH INHIBITORS” (priority 1998, dated 1999).

Experiments:
[1] = test system: Porcine Ovarian Granulosa Cells; assay: Test Example 7: inhibition of SNP-induced apoptosis of undifferentiated POGC; format: cell-based; conditions: Sus scrofa; for complete inhibition of apoptosis; SNP 0.5 mM; cells observed after 48 hours; read-out: Minimum effective concentration
[2] = test system: undifferentiated POGC; assay: Test Example 8: bilirubin-induced cell death of undifferentiated POGC; format: cell-based, porcine; conditions: Sus scrofa, 96 h; 10 µM added prior to bilirubin (30 µg/mL); observation after 4 days; read-out: survival of the cells
[3] = test system: 4B2 cells; assay: Test Example 9: SNP-induced apoptosis of 4B2 granulosa cell line; format: cell-based; conditions: Mus musculus; 10 µM added prior to SNP (0.5 mM); observation after 24 hours; read-out: cells alive
Description: Mouse granulosa cells were transfected with SV40 T antigen and cDNA of steroidogenic factor-1 (SF-1/Ad4BP) to establish a cell line, named 4B2. The cell secretes progesterone in response to protein kinase-A. The 4B2 cells were cultured in 48-well culture plates until subconfluency in DMEM containing 10% fetal bovine serum in a CO2 incubator according to a conventional manner. After the medium was switched to DMEM containing 2% fetal bovine serum, SNP (0.5 mM) was added thereto. […] Then, prior to the addition of SNP, Test Compound 13, 14, 17, 20, 24 or 25 (10 µM each) was added to the present medium and observations on cells were made after 24 hours.

[4] = test system: cerebellar granule cells; assay: Test Example 10: hydrogen peroxide-induced death of cerebellar granule cells; format: cell-based, rats; conditions: Rattus norvegicus, read-out: cells alive
Description: (§1) According to a known method (A Dissection and Tissue Culture Manual of the Nervous System, p. 211, 1989, Alan R, Liss, Inc.), cerebellar granule cells were isolated from the cerebellum of 7 days old rats and cultured. Namely, after conducting isolation procedures described in the above literature, the resulting cells were resuspended in DMEM containing 10% fetal bovine serum, 25 mM KCl and 2 mM glutamine, and seeded in poly-lysine coated plates. After the cells were cultured in a CO2 incubator for 48 hours according to a conventional method, cytosine-1-β-D(+)-arabinofuranoside (Ara-C) (10 µM) was added thereto, and the cell was continued to culture. The following experiments were conducted with the cells of 7 to 14 days old from the start day of the culture, the cells having completed neurite extension sufficiently. […] Furthermore, experiments were conducted by increasing a concentration of hydrogen peroxide to 300 µM. In the cases that Test Compound 18 (10 µM), Test Compound 19 (10 µM), or Test Compound 20 (10 µM) were added, about 90%, 90%, and 70% of the cells were alive, respectively, on observations after 16 hours.

[5] = test system: cerebellar granule cells; assay: Test Example 11: SNP-induced death of cerebellar granule cells; format: cell-based, rats; conditions: Rattus norvegicus; 10 µM added prior to SNP (1.5 µM); observation after 12 hours; read-out: cells alive
[6] = test system: cerebellar granule cells; assay: Test Example 12: bilirubin-induced death of cerebellar granule cells; format: cell-based, rats; conditions: Rattus norvegicus; 10 µM added prior to bilirubin (100 µg/ml); observation after 18 hours; read-out: cells alive
Description: as §1
Neonatal jaundice is known to induce severe brain damages by way of abnormally high concentration of bilirubin in the body. […]

[7] = test system: erythrocytes; assay: Test Example 13: hydrogen peroxide-induced death of erythrocytes; format: cell-based; conditions: Homo sapiens, Erythrocyte, read-out: ratios of dead erythrocytes (dark ghost cells)
Description: After human blood (2 mL) was centrifuged at 1000 rpm for 5 min, the resulting cell pellets containing erythrocytes were washed three times with a DMEM medium and the cells were resuspended in the same medium (15 mL) (about 5 × 10^8 cells/mL). Ten µL of this suspension was added with 10% FCS/DMEM (10 mL), and the cells were plated in 48 well plates (500 µL/well). When hydrogen peroxide (300 µM) was added to the erythrocyte culture solution and the cells were cultured for 24 hours, all erythrocytes were dead on observations under a light microscopy (all erythrocytes were subjected to shape changes from a bright, round and concave shape into a dark hemolytic ghost through multiple shape changes). On the other hand, Test Compound 14 (30 µM), Test Compound 18 (10 µM), Test Compound 19 (20 µM) or Test Compound 20 (20 µM) was added prior to the hydrogen peroxide addition.

[8] = test system: Primary cultured fibroblasts; assay: Test Example 14: SNP-induced apoptosis of primary cultured fibroblasts; format: cell-based, mice; conditions: Mus musculus, Fibroblast, observation after 48 hours, read-out: cells alive
Description: Primary cultured fibroblasts were prepared from mice according to a known method (Kinou Saibou no Bunri to Baiyou (Isolation and Culture of Functional Cells), Maruzen, 1987, p. 59). Namely, after removing skin hairs from mice with shaving foam followed by disinfection with a chlorhexidine gluconate solution, tiny skin fragments were isolated. […] After migration of fibroblasts became obvious, the slide glasses and the residual skin fragments were removed, and the culture was continued. […] In the cases that Test Compound 14 (5 µM) or Test Compound 18 (2.5 µM) was added to the present culture system prior to the SNP addition, apoptosis in both cultures was inhibited and more than 95% of cells were alive on an observation after 48 hours.

[9] = test system: monolayer cells derived from the mouse kidneys; assay: Test Example 15: SNP-induced apoptosis of monolayer cells derived from kidneys; format: cell-based, mice; conditions: observation after 48 hours, read-out: cells alive
Description: Kidneys isolated from mice were dissected into minute pieces in a serum-free DMEM, which were dispersed with trypsin/EDTA treatment. After leaving it for a while, the supernatant was discarded, and the pellet was transferred to a culture plate and cultured in DMEM containing 10% fetal bovine serum in a CO2 incubator according to a conventional manner. After tissues were adhered onto a culture plate and subsequently cell colonies got formed, the tissues were removed and the colonies were subcultured in the same medium. The resulting monolayer cells derived from the mouse kidneys were morphologically different from fibroblasts. […] Then, Test Compound 14 (5 µM) or Test Compound 18 (2.5 µM) was added prior to the SNP addition and the cells were observed.

[10] = test system: Porcine ovarian granulosa cells (POGC); assay: Test Example 2: cell death of terminally differentiated (FSH/LH) POGC on continued culture; format: cell-based; conditions: Sus scrofa, 168 h; 3 µM added 4 days after final medium refreshment; observation 7 days after addition; read-out: cells alive
Source text: (§2) The ovarian granulosa cells are cells surrounding an ovum, and proliferate and differentiate by the action of follicle stimulating hormone (FSH) and luteinizing hormone (LH) in response to sexual cycles, during which they acquire a progesterone-producing ability. Unovulatory follicles finally undergo apoptosis and disappear. The differentiation process can be mimicked following to a known method (Endocrinology, Vol. 136, p. 3470, 1995) as shown in the following in vitro experiment. Furthermore, when they are continuously cultured with maintaining final differentiation ability, they are observed to undergo apoptosis as described below. Namely, porcine ovaries were rinsed with PBS buffer, and porcine ovarian granulosa cells (POGC) were collected by aspiration from antral follicles with a syringe. Cell fraction was recovered as a precipitate by centrifugation of the suspension. The operation of suspending the cell fraction into PBS buffer and subjecting the resulting suspension to centrifugation was repeated three times to wash the cells. […] Upon continued culture, these completely differentiated cells undergo cell death synchronously after about 5 days, the cell death being monitored by a trypan blue exclusion test and a MTT (3-(4,5-dimethylthiazol-2-yl)-2,5-diphenyltetrazolium bromide) test.

[11] = test system: Porcine ovarian granulosa cells (POGC); assay: Test Example 3: PGF2α-induced cell death of terminally differentiated POGC; format: cell-based; conditions: Sus scrofa; 3 µM added prior to PGF2α (50 µg/mL); observation after 16 hour; read-out: survival of the cells
Source text: as §2, with “test. […]” for “test.”

[12] = test system: POGC; assay: Test Example 4: cell death of POGC in long term serum-free, hormone-free culture; format: cell-based, porcine; conditions: Sus scrofa, 168 h, observation at 7 days after the death of cells treated with no test compound, read-out: survival of the cells
Source text: as §2, with “test. […]” for “test.”

[13] = test system: POGC; assay: Test Example 5: staurosporine-induced cell death of completely differentiated POGC; format: cell-based, porcine; conditions: Sus scrofa; 3 µM added prior to staurosporine (3 nM); observation after 68 hours; read-out: cells alive
Source text: as §2, with “test. […]” for “test.”

[14] = test system: undifferentiated POGC; assay: Test Example 6: hydrogen peroxide-induced cell death of undifferentiated POGC; format: cell-based, porcine; conditions: Sus scrofa; 3 µM added prior to hydrogen peroxide (100 µm); observation after 24 hours; read-out: cells alive
[15] = 10 µM, hydrogen peroxide 300 µM, observation after 16 hours
[16] = 5 µM added prior to SNP (0.5 mM)
[17] = 2.5 µM added prior to SNP (0.5 mM)

`Cc1cccc2c(C3=C(c4c[nH]c5c(C)cccc45)C(=O)N(C)C3=O)c[nH]c12` [Compound 25] was tested, and the minimal effective concentration [1] was 0.3 µM, the viability at 10 µM [2] was 95% and the viability at 10 µM [3] was > 95%. For the same compound, the viability at 10 µM ([4]; 10 µM added prior to hydrogen peroxide (10 µM), observation after 12 hours) was > 95% and the viability at 10 µM [5] was > 95%.
With `CC(=O)NCCCn1cc(C2=C(c3c[nH]c4ccccc34)C(=O)N(C)C2=O)c2ccccc21` [Compound 20] the minimal effective concentration [1] was 7 µM, the viability at 10 µM [3] was > 95% and the viability at 10 µM [4, 15] was ~70%. The viability at 10 µM [5] was > 95%, the viability at 10 µM [6] was ~80% and the cytotoxicity at 20 µM ([7]; 20 µM added prior to hydrogen peroxide (300 µM), observation after 24 hours) was 10%.
In the case of `CN1C(=O)C(c2c[nH]c3ccccc23)=C(c2c[nH]c3ccccc23)C1=O`, the viability at 10 µM [2] is reported as 50%, the viability at 10 µM [3] is reported as > 95% and the viability at 10 µM [5] is reported as > 95%. For the same compound, the cytotoxicity at 30 µM ([7]; 30 µM added prior to hydrogen peroxide (300 µM), observation after 24 hours) was 20%, the viability at 5 µM [8, 16] was > 95% and the viability at 5 µM [9, 16] was > 95%.
`CN(C)CCCn1cc(C2=C(c3c[nH]c4ccccc34)C(=O)NC2=O)c2ccccc21` [Compound 18] was tested, and the viability at 3 µM [10] was > 95%, the viability at 3 µM [11] was > 95% and the viability at 3 µM [12] was > 95%. For the same compound, the viability at 3 µM [13] was > 95%, the viability at 3 µM [14] was > 95% and the viability at 10 µM [4, 15] was ~90%. For the same compound, the cytotoxicity at 10 µM ([7]; 24 h) was 20%, the viability at 2.5 µM [8, 17] was > 95% and the viability at 2.5 µM [9, 17] was > 95%.
